Measured values reported in US20040224884A1, “Methods of screening for apoptosis-controlling agents for bone anabolic therapies and uses thereof” (priority 1998, published 2004).

Legend:
[1] = target: T1, murine estrogen receptor-beta (mERβ) (Mus musculus, UniProt O08537); assay: Etoposide-induced apoptosis in HeLa cells stably transfected with mERβ; type: cell-based, human; conditions: 10^−8 M, 1 h; etoposide 5×10^−5 M, 6 hour
T1 construct: expressed in transfected cells
Description: (§1) CMV promoter alone and CMV promoter-driven cDNA for mERα or mErβ were stably transfected into HeLa cells. […] Cells were trypsinized, pelleted and trypan blue positive cells enumerated.
(§2) In this experiment, instead of calvaria cells, human HeLa cells which contain undetectable, if any, estrogen receptor were used. HeLa cells were stably transfected with either a CMV promoter-driven cDNA for the murine estrogen receptor-alpha (mERα) or a CMV promoter-driven cDNA for the murine estrogen receptor-beta (mERβ). […] Cells were trypsinized, pelleted and trypan blue positive cells were enumerated.

[2] = target: T2, murine estrogen receptor-alpha (mERα) (Mus musculus, UniProt P19785); assay: Etoposide-induced apoptosis in HeLa cells stably transfected with mERα; type: cell-based, human; conditions: 10^−8 M, 1 h; etoposide 5×10^−5 M, 6 hour
T2 construct: expressed in transfected cells
T2 sequence (P19785 1-599): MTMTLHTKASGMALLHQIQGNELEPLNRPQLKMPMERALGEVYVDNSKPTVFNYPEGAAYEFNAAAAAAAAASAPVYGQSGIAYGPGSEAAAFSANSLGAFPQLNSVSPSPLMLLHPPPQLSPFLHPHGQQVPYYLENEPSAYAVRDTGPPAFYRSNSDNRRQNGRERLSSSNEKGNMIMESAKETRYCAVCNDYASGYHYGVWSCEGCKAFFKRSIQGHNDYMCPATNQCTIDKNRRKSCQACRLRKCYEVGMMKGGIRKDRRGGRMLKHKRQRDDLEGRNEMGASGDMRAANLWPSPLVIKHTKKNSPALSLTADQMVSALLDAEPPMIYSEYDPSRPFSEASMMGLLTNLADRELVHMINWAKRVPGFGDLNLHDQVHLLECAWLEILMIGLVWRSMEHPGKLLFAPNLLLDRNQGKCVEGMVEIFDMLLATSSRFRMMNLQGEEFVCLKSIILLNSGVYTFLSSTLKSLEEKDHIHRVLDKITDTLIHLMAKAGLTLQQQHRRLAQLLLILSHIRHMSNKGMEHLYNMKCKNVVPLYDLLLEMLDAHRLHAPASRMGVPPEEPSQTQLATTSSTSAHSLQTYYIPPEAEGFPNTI
Description: as §1, §2

[3] = Vertebral compression strength of fifth lumbar vertebrae (L5); type: in vivo, mice; conditions: 2000 ng/g body weight for 28 days
Procedure: In a representative experiment of this sort, seven 4-5 month old female mice per group-are screened twice for BMD in a four week period immediately prior to the initiation of the experiment to establish that peak adult bone mass has been attained. A subset of mice are then ovariectomized. Intact and ovariectomized mice are treated with vehicle, or 20, 200 or 2000 ng/g body weight estratriene-3-ol or another ANGEL compound. […] Ultimate load bearing properties of the fifth lumbar murine vertebrae (L5) is determined. This is done using a servohydraulic axial-torsional material testing machine (Model MTS 810 Bionx; MTS Systems Corp., Eden Prairie, Minn.) and a Lebow load cell (Eaton Products, Troy, Mich.). Data are recorded and analyzed using the LabVIEW software package and an acquisition/signal conditioning board (Model NB-MIO-16, National Instruments Corporation, Austin, Tex.). The L5 specimens that is used for ultimate load bearing is cleaned of surrounding soft tissue and the length and diameter recorded with a digital caliper at a resolution of 0.01 mm (Mitutoyo Model #500-196, Ace Tools, Ft. Smith, Ariz.). […] Vertebrae are individually compressed between parallel loading platens along the cephalocaudad axis until failure and the ultimate load (in Newtons) and displacement (in mm) are recorded. […]

T1 sequence (O08537 whole entry): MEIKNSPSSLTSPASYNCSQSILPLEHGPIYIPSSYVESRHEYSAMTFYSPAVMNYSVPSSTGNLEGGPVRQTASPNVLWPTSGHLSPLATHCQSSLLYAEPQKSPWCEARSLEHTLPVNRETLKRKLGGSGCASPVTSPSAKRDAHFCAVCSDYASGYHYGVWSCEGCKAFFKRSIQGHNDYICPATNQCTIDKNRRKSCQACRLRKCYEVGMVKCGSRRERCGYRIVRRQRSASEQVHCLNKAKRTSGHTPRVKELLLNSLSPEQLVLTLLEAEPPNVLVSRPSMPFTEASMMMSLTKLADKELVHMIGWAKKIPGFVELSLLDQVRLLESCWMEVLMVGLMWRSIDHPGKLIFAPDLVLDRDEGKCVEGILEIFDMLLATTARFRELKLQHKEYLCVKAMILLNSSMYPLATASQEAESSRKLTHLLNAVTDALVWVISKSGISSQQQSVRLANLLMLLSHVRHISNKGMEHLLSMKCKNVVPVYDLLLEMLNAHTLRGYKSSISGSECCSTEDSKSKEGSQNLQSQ

Structure (SMILES): C[C@@]12CCC[C@H]1[C@@H]1CCc3cc(O)ccc3[C@H]1CC2 [estratriene-3-ol]
- inhibition of etoposide-induced apoptosis in HeLa cells transfected with estrogen receptor β [1]: potently inhibited
- inhibition of etoposide-induced apoptosis in HeLa cells transfected with estrogen receptor α [2]: potently inhibited
- Vertebral Compression ([3]; Ovx mice, p < 0.00001): 85.57 ± 10.17 Newtons
- Vertebral Compression ([3]; intact mice, p < 0.006): 96.26 ± 15.92 Newtons
